Several values for one entry are separate records, joined by “and”; a condition that tells them apart may be missing. Equal values may be shown once. Read-outs that look alike come from different tables or passages of the source.
Columns and labels:
[1] = test system: MRSA 15903; test: microbe, parasite or virus in culture; format: cell-based, Staphylococcus aureus
In short: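 Two-agent combinations tested against MRSA 15903; FIC index = A/MICA + B/MICB, using MICs in combination versus alone. Below 0.5 read as clear re-sensitizing, 0.5–4 marginal or null, above 4 antagonism.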

[2] = test system: S. aureus 15819; test: Antibiotic MIC by microdilution with or without sub-MIC polymer; format: cell-based, Staphylococcus aureus; conditions: S. aureus 15819
[3] = test system: S. aureus 15877; test: as above; format: cell-based, Staphylococcus aureus
[4] = test system: S. aureus 17314; test: as above; format: cell-based, Staphylococcus aureus
[5] = test system: E. coli 14384; test: as above; format: cell-based, Escherichia coli
In short: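 Broth microdilution, inoculum 10^5 bacteria/ml, 2-fold serial dilutions of polymer alone, or of antibiotic combined with […]. Growth inhibition read as OD620 after 24 h at 37° C, calibrated against standards.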

[6] = test system: E. coli 16327; test: microbe, parasite or virus in culture
[7] = test system: E. coli 16329; format: cell-based, Escherichia coli
In short: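 Bacterial suspensions (100 μl) were added to 100 μl of culture medium carrying 2-fold serially diluted antibiotic together with a fraction of the polymer's MIC, or to plain medium as control. Plates were incubated 24 hours at 37° C, and proliferation was read at 620 nm against calibration standards. Starting inoculum was 10^5 bacteria per ml.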

[8] = test system: E. coli 14182; test: Antibiotic MIC by microdilution with or without sub-MIC polymer; format: cell-based, Escherichia coli
[9] = test system: S. maltophila 748; test: as above; format: cell-based, Stenotrophomonas maltophila
[10] = test system: E. coli K-12 efflux knockout mutant; format: cell-based, Escherichia coli; conditions: E. coli AG100A (efflux−)
In short: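 Broth microdilution, inocula 10^5 bacteria/ml, 24 h at 37 °C. Growth read as OD620 against calibration standards.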

[11] = test system: E. coli K-12 resistant wild type; format: cell-based, Escherichia coli; conditions: E. coli AG100 (w.t.)
[12] = test system: S. aureus 43300; test: Antibiotic MIC by microdilution with or without sub-MIC polymer; format: cell-based, Staphylococcus aureus
[13] = +¼ MIC (1.6 μM) C12(5-ene)KKNC12KNH2
[14] = +½ MIC (3.12 μM) C12(5-ene)KKNC12KNH2
[15] = +½ MIC (3.12 μM) C12K(KNC12K)3NH2
[16] = +⅓ MIC (2.1 μM) C12(5-ene)KKNC12KNH2
[17] = +⅓ MIC (2.1 μM) C12K(KNC12K)3NH2
[18] = polymer at ¼ of its MIC (Table 16)
[19] = polymer at ½ of its MIC (Table 16)
[20] = polymer at ⅓ of its MIC (Table 16)
[21] = the OAK at ¼ of its MIC (Table 17)
[22] = the OAK at ½ of its MIC (Table 17)
[23] = the OAK at ⅓ of its MIC (Table 17)

CCN1CCN(C(=O)N[C@@H](C(=O)N[C@@H]2C(=O)N3[C@@H]2SC(C)(C)[C@@H]3C(=O)O)c2ccccc2)C(=O)C1=O [Piperacillin, piperacillin]
8 µg/mL: Antibiotic MIC [2, 16] | Antibiotic MIC ([4]; S. aureus 17314, no polymer (None), Table 10) | Antibiotic MIC ([12]; +½ MIC (3.12 μM) C12KKNC12KNH2)
<0.13 µg/mL: Antibiotic MIC, None ([10]; antibiotic alone (Table 16)) | Antibiotic MIC, None ([10]; antibiotic alone (Table 17)) | Antibiotic MIC in presence of C12K(NC8K)7NH2 (SEQ ID NO: 4), +¼ MIC [10, 18] | Antibiotic MIC in presence of C12K(NC8K)7NH2 (SEQ ID NO: 4), +½ MIC [10, 19] | Antibiotic MIC in presence of C12K(NC8K)7NH2 (SEQ ID NO: 4), +⅓ MIC [10, 20] | Antibiotic MIC in presence of the OAK, +¼ MIC [10, 21] | Antibiotic MIC in presence of the OAK, +½ MIC [10, 22] | Antibiotic MIC in presence of the OAK, +⅓ MIC [10, 23]
256 µg/mL and 256 to 512 µg/mL: Antibiotic MIC [5]
128 µg/mL: Antibiotic MIC [4] | Antibiotic MIC ([4]; S. aureus 17314, +¼ MIC (1.6 μM) C12K(KNC12K)2NH2) | Antibiotic MIC ([4]; S. aureus 17314, +⅓ MIC (2.1 μM) C12K(KNC12K)2NH2) | Antibiotic MIC ([4]; S. aureus 17314, no polymer (None), Table 11) | Antibiotic MIC ([4]; S. aureus 17314, no polymer (None), Table 12) | Antibiotic MIC ([7]; E. coli U-16329, +½ MIC C12K(NC8K)5NH2)
64 to 128 µg/mL: Antibiotic MIC in presence of C12K(NC8K)7NH2 (SEQ ID NO: 4), +½ MIC ([5]; E. coli 14384, polymer at ½ of its MIC) | Antibiotic MIC in presence of C12K(NC8K)7NH2 (SEQ ID NO: 4), +½ MIC ([7]; E. coli U-16329, polymer at ½ of its MIC)
0.25 µg/mL: MIC ([1]; S. aureus CI-15903, +polymer (½ MIC) C12(5-ene)KKNC12KNH2)
1 µg/mL: MIC ([1]; MRSA 15903, +½ polymer MIC (3.1 μM) NC12(KNC12K)2NH2) | Antibiotic MIC ([4]; S. aureus 17314, +½ MIC (3.12 μM) C16(9-ene)KKNC12KNH2) | Antibiotic MIC in presence of C12K(NC8K)7NH2 (SEQ ID NO: 4), +⅓ MIC [11, 20] | Antibiotic MIC in presence of the OAK, +⅓ MIC [11, 23]
256 µg/mL: MIC ([1]; S. aureus CI-15903, alone) | MIC ([1]; Staphylococcus aureus, MRSA, 24 h) | Antibiotic MIC ([6]; E. coli 16327, +¼ MIC (1.6 μM) C12K(KNC12K)2NH2) | Antibiotic MIC ([6]; E. coli 16327, +⅓ MIC (2.1 μM) C12K(KNC12K)2NH2) | Antibiotic MIC ([6]; E. coli 16327, no polymer (None), Table 9) | Antibiotic MIC ([6]; E. coli 16327, no polymer (None), Table 12) | Antibiotic MIC, None ([6]; E. coli U-16327, antibiotic alone (Table 15)) | Antibiotic MIC in presence of C12K(NC8K)7NH2 (SEQ ID NO: 4), +¼ MIC ([6]; E. coli U-16327, polymer at ¼ of its MIC) | Antibiotic MIC ([7]; E. coli 16329, no polymer (None), Table 10) | Antibiotic MIC ([7]; E. coli U-16329, +¼ MIC C12K(NC8K)5NH2) | Antibiotic MIC, None ([7]; E. coli U-16329, antibiotic alone (Table 15)) | Antibiotic MIC ([7]; E. coli U-16329, no polymer (None), Table 14)
128 µg/mL and 256 µg/mL: Antibiotic MIC [6]
8 to 16 µg/mL: Antibiotic MIC [2, 13] | Antibiotic MIC ([2]; +⅓ MIC (2.1 μM) C12KKNC12KNH2) | Antibiotic MIC [3, 14]
512 µg/mL: Antibiotic MIC ([6]; E. coli 16327, no polymer (None), Table 10) | Antibiotic MIC ([8]; +½ MIC C12K(NC8K)5NH2)
1 to 2 µg/mL: Antibiotic MIC in presence of the OAK, +¼ MIC [11, 21]
0.5 µg/mL: Antibiotic MIC in presence of C12K(NC8K)7NH2 (SEQ ID NO: 4), +½ MIC [11, 19] | Antibiotic MIC in presence of the OAK, +½ MIC [11, 22]
128 to 256 µg/mL: Antibiotic MIC in presence of C12K(NC8K)7NH2 (SEQ ID NO: 4), +⅓ MIC ([6]; E. coli U-16327, polymer at ⅓ of its MIC) | Antibiotic MIC [7] | Antibiotic MIC ([7]; E. coli U-16329, +⅓ MIC C12K(NC8K)5NH2) | Antibiotic MIC in presence of C12K(NC8K)7NH2 (SEQ ID NO: 4), +¼ MIC ([7]; E. coli U-16329, polymer at ¼ of its MIC) | Antibiotic MIC in presence of C12K(NC8K)7NH2 (SEQ ID NO: 4), +⅓ MIC ([7]; E. coli U-16329, polymer at ⅓ of its MIC)
32 µg/mL: MIC ([1]; S. aureus CI-15903, +polymer (¼ MIC) C12(5-ene)KKNC12KNH2) | Antibiotic MIC ([2]; no polymer (None), Table 11) | Antibiotic MIC ([2]; no polymer (None), Table 13) | Antibiotic MIC ([4]; S. aureus 17314, +¼ MIC (1.6 μM) C14(9-ene)KKNC12KNH2) | Antibiotic MIC ([4]; S. aureus 17314, +½ MIC (3.12 μM) C14(9-ene)KKNC12KNH2) | Antibiotic MIC ([4]; S. aureus 17314, +⅓ MIC (2.1 μM) C14(9-ene)KKNC12KNH2) | Antibiotic MIC ([4]; S. aureus 17314, no polymer (None), Table 9) | Antibiotic MIC ([9]; +¼ MIC (1.6 μM) C12K(KNC12K)3NH2) | Antibiotic MIC [9, 15] | Antibiotic MIC [9, 17] | Antibiotic MIC ([9]; no polymer (None), Table 13) | Antibiotic MIC ([12]; +¼ MIC (1.6 μM) C12K(KNC12K)2NH2) | Antibiotic MIC ([12]; +¼ MIC (1.6 μM) C12KKNC12KNH2) | Antibiotic MIC ([12]; +⅓ MIC (2.1 μM) C12K(KNC12K)2NH2)
16 µg/mL: Antibiotic MIC ([2]; +¼ MIC (1.6 μM) C12KKNC12KNH2) | Antibiotic MIC ([2]; no polymer (None), Table 8) | Antibiotic MIC ([12]; +⅓ MIC (2.1 μM) C12KKNC12KNH2)
16 to 32 µg/mL: Antibiotic MIC [3, 13] | Antibiotic MIC [3, 16] | Antibiotic MIC ([3]; no polymer (None), Table 8)
32 to 64 µg/mL: Antibiotic MIC in presence of C12K(NC8K)7NH2 (SEQ ID NO: 4), +½ MIC ([6]; E. coli U-16327, polymer at ½ of its MIC)
2 µg/mL: Antibiotic MIC ([4]; S. aureus 17314, +⅓ MIC (2.1 μM) C16(9-ene)KKNC12KNH2) | Antibiotic MIC, None ([11]; antibiotic alone (Table 16)) | Antibiotic MIC, None ([11]; antibiotic alone (Table 17)) | Antibiotic MIC in presence of C12K(NC8K)7NH2 (SEQ ID NO: 4), +¼ MIC [11, 18] | Antibiotic MIC ([12]; +½ MIC (3.12 μM) C16(9-ene)KKNC12KNH2)
>512 µg/mL: Antibiotic MIC ([8]; +¼ MIC C12K(NC8K)5NH2) | Antibiotic MIC ([8]; +⅓ MIC C12K(NC8K)5NH2) | Antibiotic MIC, None ([8]; antibiotic alone (Table 15)) | Antibiotic MIC ([8]; no polymer (None), Table 14) | Antibiotic MIC in presence of C12K(NC8K)7NH2 (SEQ ID NO: 4), +¼ MIC ([8]; polymer at ¼ of its MIC) | Antibiotic MIC in presence of C12K(NC8K)7NH2 (SEQ ID NO: 4), +⅓ MIC ([8]; polymer at ⅓ of its MIC)
256 to 512 µg/mL: Antibiotic MIC ([5]; E. coli 14384, +½ MIC C12K(NC8K)5NH2) | Antibiotic MIC, None ([5]; E. coli 14384, antibiotic alone (Table 15)) | Antibiotic MIC ([5]; E. coli 14384, no polymer (None), Table 9) | Antibiotic MIC ([5]; E. coli 14384, no polymer (None), Table 14) | Antibiotic MIC in presence of C12K(NC8K)7NH2 (SEQ ID NO: 4), +¼ MIC ([5]; E. coli 14384, polymer at ¼ of its MIC) | Antibiotic MIC in presence of C12K(NC8K)7NH2 (SEQ ID NO: 4), +⅓ MIC ([5]; E. coli 14384, polymer at ⅓ of its MIC)
4 µg/mL: MIC ([1]; MRSA 15903, +⅓ polymer MIC (2.1 μM) NC12(KNC12K)2NH2) | MIC ([1]; S. aureus CI-15903, +polymer (⅓ MIC) C12(5-ene)KKNC12KNH2) | Antibiotic MIC [2, 14] | Antibiotic MIC [2, 15] | Antibiotic MIC ([2]; +½ MIC (3.12 μM) C12KKNC12KNH2) | Antibiotic MIC [2, 17] | Antibiotic MIC ([4]; S. aureus 17314, +¼ MIC (1.6 μM) C16(9-ene)KKNC12KNH2) | Antibiotic MIC [12, 13] | Antibiotic MIC ([12]; +¼ MIC (1.6 μM) C16(9-ene)KKNC12KNH2) | Antibiotic MIC [12, 16] | Antibiotic MIC ([12]; +⅓ MIC (2.1 μM) C16(9-ene)KKNC12KNH2)
64 µg/mL: MIC ([1]; MRSA 15903, +¼ polymer MIC (1.6 μM) NC12(KNC12K)2NH2) | Antibiotic MIC ([4]; S. aureus 17314, +½ MIC (3.12 μM) C12K(KNC12K)2NH2) | Antibiotic MIC ([4]; S. aureus 17314, +½ MIC (3.12 μM) C12KKNC12KNH2) | Antibiotic MIC ([6]; E. coli 16327, +½ MIC (3.12 μM) C12K(KNC12K)2NH2) | Antibiotic MIC in presence of C12K(NC8K)7NH2 (SEQ ID NO: 4), +½ MIC ([8]; polymer at ½ of its MIC)

Reference: patent US20180153995A1, “USE OF ANTIMICROBIAL POLYMERS FOR RE-SENSITIZATION OF MICROORGANISMS UPON EMERGENCE OF RESISTANCE TO ANTI-MICROBIAL AGENTS” (Technion Research & Development Foundation Limited, priority 2008, published 2018)
